The test system of one data set is myeloid suppressor cells. The data set can be described thus: In vivo anti-inflammatory activity, generation of myeloid suppressor cells. The conditions noted are these: data not shown.
In data set [1] the test system is induced peritoneal macrophages. Briefly: Activation status of induced peritoneal macrophages after subcutaneous treatment of control or WBI mice. The conditions noted are these: for TNF-α production of induced peritoneal cells in response to LPS after treatment in vivo: compound given subcutaneously, macrophages harvested day 4, incubated 24 h with LPS. The format is in vivo. The procedure: To determine if compound 2 (5355512), injected subcutaneously would affect the activation status of induced peritoneal macrophages, compound 2 (5355512) was given subcutaneously to control or WBI (5 Gy) and peritoneal macrophages harvested at day 4 as before. Cells from these groups of mice were incubated for 24 h with LPS or LPS then 512 (See FIG. 12). […] However, this “priming” effect was less when WBI and Compound 2 (5355512) were combined in vivo.

A further data set can be described thus: Solubility. The format is physicochemical.
Data set [2] has as its system Lewis lung (LLC) tumor lung colonies. The data set can be described thus: Lewis lung (LLC) model of artificial metastasis. Type of data set: in vivo, mice. How it is done:
The Lewis lung (LLC) model of artificial metastasis was used to test the effects of the drug on the growth of tumor lung colonies in vivo and on radiation response. This was chosen because it is easy to see any drug effects on growth promotion and radioprotection in multiple tumors simultaneously. Specifically, C57Bl/6 mice and C3H mice were injected intravenously with 5×10^4 tumor cells. Subcutaneous injections of compound 2 (5355512) were started on day 4 when the tumors were already established in the lung. A daily dose of 20 mg/kg for 5 days was used to bias the experiment in favor of any tumor growth promotion. Local thoracic irradiation (LTI) was started on day 5 with 4 Gy daily doses for 3 days. This is higher than conventional 2 Gy to compensate for the rapid growth of murine tumors, but is still well within the higher ranges used clinically in hypofractionated exposures. The colonies were counted on day 14. […] LTI alone decreased the number of colonies by 40%.

Values after ≈ are worked out from the molar mass of the structure shown.

Regarding `O=[N+]([O-])c1ccc(S(=O)(=O)N2CCN(c3ccccc3)CC2)cc1` [Compound 2, 1-[(4-nitrobenzene)sulfonyl]-4-phenylpiperazine], in the data set with myeloid suppressor cells, the “Anti-inflammatory activity in vivo” value is “showed anti-inflammatory activity”. In addition, the “Priming effect when WBI and compound combined in vivo” value in data set [1] (WBI (5 Gy) plus compound subcutaneously) is given as “less”. The “TNF-α production of induced peritoneal cells in response to LPS after treatment in vivo” value in data set [1] is recorded as ““primed” induced peritoneal cells to produce TNF-α”; in data set [1] (listed as compound 2), “induces peritoneal macrophages to produce TNF-α”. Besides, the “TNF-α production after addition of compound in vitro” value in data set [1] (harvested cells incubated with LPS then compound) is listed as “blunted TNF-α production”. Also, in “Solubility”, the concentration in solution (solubility) came to 66.1 µM (≈ 23 µg/mL). In data set [2] (20 mg/kg daily for 5 days plus local thoracic irradiation 4 Gy daily for 3 days from day 5), the “Number of colonies with LTI plus drug versus LTI alone” value was “not further decreased”. The “Decrease in number of lung tumor colonies” value in data set [2] (20 mg/kg subcutaneously daily for 5 days from day 4, colonies counted day 14, P<0.05) is listed as 20%. Also, in data set [2] (20 mg/kg subcutaneously daily for 5 days from day 4, day 14), the “Size of lung tumor colonies” value is recorded as “smaller in size”.

These data come from patent publication US9840483B2, “Radiomitigating pharmaceutical formulations” (The Regents of the University of California, priority 2013, dated 2017).
